Data taken from US6667173B2, “Nucleic acids encoding platelet derived growth factor-alpha receptors” (The Schepens Eye Research Institute, priority 2000, dated 2003).
“Also recorded” adds a separate entry of the source.

Tests used:
GST-PLCγ = test: In vitro kinase assay of immunoprecipitated mutant αPDGFRs with exogenous substrate; type: biochemical; conditions: 292 immunoprecipitates, [32P]-γ ATP, 30° C., 5 min
Procedure: Mutant αPDGFRs were selectively immunoprecipitated with the 292 antibody, and samples representing 2×10^5 cells from 292 antibodies were subjected to an in vitro kinase assay. Immunoprecipitates were preincubated with 2 μg of GST protein for 10 min at 0° C., then 2 μg of Glutathione S-transferase fusion phospholipase C-gamma (GST-PLCγ, an exogenous substrate, 10 μCi of γ-[^32P] ATP (DuPont NEN Research Products, Boston, Mass.), and universal kinase buffer (UKB; 20 mM Pipes, pH 7.0, 10 mM MnCl2, 20 μg/ml aprotinin) were added. The samples were incubated at 30° C. for 5 min. The proteins were separated by 7.5% sodium dodecyl sulfate-polyacrylamide gel electrophoresis (SDS-PAGE), the gel was dried, and the radiolabeled protein was detected by autoradiography.

PLCγ = test: Co-immunoprecipitation of PLCγ with αPDGFR mutants in F cells; type: cell-based, mouse; conditions: 50 ng/ml PDGF-BB, 5 minutes
Procedure: (§1) The ability of the αPDGFR mutants to undergo ligand dependent tyrosine phosphorylation and to associate with signaling enzymes was then tested. F cells expressing various αPDGFR mutants were grown to subconfluence and serum starved overnight. Cells were either left resting (−) or stimulated with 50 ng/ml PDGF-BB (+) for 5 minutes, and lysed. The αPDGFR was immunoprecipitated with αPDGFR antibody, as described above, and the resulting immunoprecipitates were resolved by 7.5% SDS-PAGE and transferred onto Immobilon. The segment of the blot containing the αPDGFR was first blotted with anti-phosphotyrosine antibodies, then stripped and reprobed with an anti-αPDGFR antibody. Portions of the membrane that contained the proteins of the appropriate molecular mass were immunoblotted for PLCγ, the regulatory subunit of PI3K (p85), or SHP-2. Crude rabbit anti-p85 antibody is from Dr. A. Toker (Beth Israel Hospital/Harvard Medical School, Boston, Mass.). The monoclonal antibodies against PLCγ and SHP-2 were purchased from Upstate Biotechnology Inc.

F cells = test: Collagen gel contraction assay of F cells expressing αPDGFR mutants; type: cell-based, mouse; conditions: PDGF-BB (50 ng/ml), 48 hours
Procedure: (§2) The contraction assay was based on a previously described reference, Skuta, G. et al. (1999) J. Biol. Chem. 274:30163, with the following modifications. Fα cells were suspended in 1.5 mg/ml of neutralized collagen I (Cohesion vitrogen 100, Palo Alto, Calif.) at a density of 10^6 cells/ml, and were transferred into the 24-well plate (Falcon, Franklyn Lakes, N.J.) that had been preincubated with phosphate-buffer saline (PBS) with 5 mg/ml of bovine serum albumin (BSA) overnight. The gel was solidified by incubating at 37° C. for 90 minutes, and then the well was flooded with DMEM+5 mg/ml of BSA supplemented with an amount of vitreous such that the final concentration of vitreous in the culture medium was 1, 5 or 20%. The gels were incubated at 37° C. with 5% CO2. The initial gel diameter was 15 mm. The media was replaced every 24 hours and the gel diameter was measured after 48 hours. The extent of contraction was calculated by subtracting the diameter of the well at 48 hours from the initial diameter (15 mm). Each experimental condition was assayed in triplicate, and at least three independent experiments were performed. Unpaired t-test was performed to detect statistic difference in contraction assay.
To determine the signaling pathways that drive contraction, cells expressing the αPDGFR mutants were subjected to the collagen gel contraction assay described above. Accordingly, F cells expressing the indicated αPDGFRs were subjected to the collagen gel assay in the presence of buffer, PDGF-BB (50 ng/ml), TGFβ1 (1 ng/ml), or FBS (10%). The data presented are the mean±standard deviation measured at the 48 hours time point. Each experimental condition was assayed in triplicate, and at least 3 independent experiments were performed.

rabbit eyes = test: Rabbit PVR model: F cells expressing αPDGFR mutants injected into the vitreous; type: in vivo; conditions: up to 28 days after the surgery
Procedure: PVR was induced in the rabbit eyes as previously described (Andrews, A. et al. (1999) Invest. Ophthalmol. Vis. Sci. 40:2683 and Nakagawa, M. et al. (1995) Invest. Ophthalmol. Vis. Sci. 36:2388). Briefly, gas vitrectomy was performed by injecting 0.4 ml of expanding perfluoropropane gas (C3F8) into the vitreous cavity 4 mm posterior to the corneal limbus under anesthetical condition. Three days later, the rabbits were anesthetized and the pupils were dilated. 0.1 ml DMEM containing 1×10^5 of RCFs expressing empty vector or αPDGFR mutant were injected into the vitreous cavity together with 0.1 ml of PRP using 30 G needle. Ten rabbits underwent surgery for each cell population expressing the empty vector or the truncated, E587K, T665M, D818N, or V859M αPDGFR mutants. One rabbit in the D818N group died just after the surgery, therefore the total number is 9 for this group. The retinal status was evaluated with an indirect ophthalmoscope fitted with a +30 D fundus lens at 1, 4, 7, 14, 21, and 28 days after the surgery. The PVR was graded from 0 through 5 according to the Fastenberg score. Fastenberg, D. M. et al. (1982) Am. J. Ophthalmol. 93:565. The grading is as follows: 0; no abnormality, 1; vitreous strand, 2; traction of the retina, 3; partial retinal detachment (less than 2 quadrant), 4; extended (more than 2 quadrant) but not total retinal detachment, 5; total retinal detachment. All surgeries were performed under aseptic conditions and pursuant to the regulation of the ARVO Statement for the Use of Animals in Ophthalmic and Vision Research. Only the left eye of each rabbit was used for the experiments.
An important component of PVR is the traction force that is generated when cells of the epiretinal membrane contract. To test if the signaling enzymes that are required for contraction in the in vitro assays also participate in PVR, the cells expressing the various αPDGFR mutants, described in the previous Examples, were assayed in a rabbit PVR model, described above. In this model, rabbits first undergo gas vitrectomy, and then cells are coinjected with […]. The formation of an epiretinal membrane and retinal detachment is observed in living animals over 28 days.
Briefly, PVR was induced by introducing F cells expressing the indicated αPDGFR into the vitreous of the rabbit eyes. The PVR score was evaluated up to 28 days after the surgery according to the classification described above. The mean value and standard error of the scores in a group were indicated. Each group contained 9 or 10 rabbits; the response to parental F cells was previously reported (Andrews et al., supra), and was included here for comparison purposes.

FCX^2, Fα and Fβ cells = test: Collagen gel contraction assay of cells with no PDGFRs, αPDGFR or βPDGFR; type: cell-based, mouse; conditions: 50 ng/ml PDGF-BB; 24, 48, 72 hours
Procedure: as §2, with “The gels were incubated at 37° C. with 5% CO2. The initial gel diameter was 15 mm.” left out, “Each experimental condition was assayed in triplicate, and at least three independent experiments were performed. Unpaired t-test was performed to detect statistic difference in contraction assay.” left out
The experiments described in Example 9 (FIG. 7B) were repeated with cells that express the βPDGFR (Fβ) instead of the αPDGFR, or no PDGFRs (FCX^2). Contraction was scored at the 48 hours time point. […]
To more directly test whether TGFβ could moderate contraction of fibroblasts via the αPDGFR, the response of the three cell lines to purified TGFβ was examined. […] The gel diameter was measured after 24, 48, or 72 hours, and the media was replaced every day.

αPDGFR = target: T1, αPDGFR (Homo sapiens, UniProt P16234); test: Tyrosine phosphorylation of the αPDGFR in TGFβ- or PDGF-treated F cells; type: cell-based; conditions: Fα cells; 50 ng/ml PDGF-BB 5 minutes or 1 ng/ml TGFβ1 5 minutes to 8 hours
T1 construct: expressed in transfected cells; host or cells: F cells (SV-40 immortalized mouse embryo fibroblasts lacking both PDGFRs), giving Fα
Procedure: To show the effect of TGFβ on αPDGFR, the tyrosine phosphorylation state of the αPDGFR was assayed in TGFβ-treated cells. The F cells with or without PDGFR were grown to 80% confluent and then starved with DMEM containing 1% FBS for 20 hours. Cells were exposed at 37° C. for 5 minutes to either 50 ng/ml of PDGF-BB; with 1 ng/ml of TGFβ1 for 5 minutes, 1 hour, 2 hours, 4 hours, 6 hours or 8 hours; or were left unstimulated. After treatment the cells were washed twice with H/S (20 mM Hepes, pH 7.4, 150 mM NaCl) and then lysed in EB (10 mM Tris-HCl, pH 7.4, 5 mM EDTA, 50 mM NaCl, 50 mM NaF, 1% Triton-X 100, 0.1% BSA, 20 μg/ml aprotinin, 2 mM Na3VO4, 1 mM phenylmethylsulfonyl fluoride; PMSF). Lysates were centrifuged for 15 minutes at 13,000×g, the pellet was discarded and the soluble fraction was used as the total cell lysate. The protein concentration was measured using protein assay kit (Pierce, Rockfield, Ill.) following the manufacture's instructions.
Receptors were immunoprecipitated from the soluble fraction with the 27P antibody (described above). Immune complex was bound to formalin-fixed membranes of Staphylococcus aureus, spun through an EB sucrose gradient, and washed twice with EB, then with PAN (10 mM Pipes, pH 7.0, 100 mM NaCl, 1% aprotinin)+0.5% Nonidet P-40 (NP-40), and finally with PAN. The samples were resuspended in PAN before using for kinase assay or western blotting. […]

SHP-2 = test: Co-immunoprecipitation of SHP-2 with αPDGFR mutants in F cells; type: cell-based, mouse; conditions: 50 ng/ml PDGF-BB, 5 minutes
Procedure: as §1

T1 sequence (P16234 24-1089): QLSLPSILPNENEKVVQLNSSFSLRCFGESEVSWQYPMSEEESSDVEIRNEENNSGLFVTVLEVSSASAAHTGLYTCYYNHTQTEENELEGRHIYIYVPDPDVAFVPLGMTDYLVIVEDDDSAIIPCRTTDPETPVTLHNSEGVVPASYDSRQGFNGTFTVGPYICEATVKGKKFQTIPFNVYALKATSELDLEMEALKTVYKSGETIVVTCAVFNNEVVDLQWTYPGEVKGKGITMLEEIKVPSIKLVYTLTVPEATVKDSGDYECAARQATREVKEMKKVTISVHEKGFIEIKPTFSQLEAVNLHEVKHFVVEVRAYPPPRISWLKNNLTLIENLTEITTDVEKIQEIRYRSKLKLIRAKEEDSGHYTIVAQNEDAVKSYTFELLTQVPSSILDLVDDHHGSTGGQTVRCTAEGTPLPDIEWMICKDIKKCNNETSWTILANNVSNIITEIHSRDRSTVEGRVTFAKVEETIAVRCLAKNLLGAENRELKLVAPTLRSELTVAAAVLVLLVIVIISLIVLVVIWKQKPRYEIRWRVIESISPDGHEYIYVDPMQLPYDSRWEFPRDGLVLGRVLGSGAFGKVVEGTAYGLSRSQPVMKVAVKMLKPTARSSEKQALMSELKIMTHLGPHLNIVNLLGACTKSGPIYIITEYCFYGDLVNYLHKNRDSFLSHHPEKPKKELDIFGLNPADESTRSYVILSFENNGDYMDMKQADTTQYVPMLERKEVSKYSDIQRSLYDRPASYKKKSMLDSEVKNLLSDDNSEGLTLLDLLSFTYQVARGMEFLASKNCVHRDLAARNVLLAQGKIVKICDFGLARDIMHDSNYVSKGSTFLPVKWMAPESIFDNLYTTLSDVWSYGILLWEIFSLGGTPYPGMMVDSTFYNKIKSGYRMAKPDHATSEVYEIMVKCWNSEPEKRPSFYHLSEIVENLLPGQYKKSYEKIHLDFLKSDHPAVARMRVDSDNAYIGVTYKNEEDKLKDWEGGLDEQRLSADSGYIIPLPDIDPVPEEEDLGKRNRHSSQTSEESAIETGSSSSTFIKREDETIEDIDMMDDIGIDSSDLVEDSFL

Substance	kinase activity towards exogenous substrate GST-PLCγ (GST-PLCγ)	PDGF-dependent contraction (F cells)	potential to induce PVR (PVR score) (rabbit eyes)	further results
T665M: human αPDGFR point mutant, threonine at position 665 changed to methionine; SEQ ID NO: 6	more active than the WT receptor	–	–	–
F1018: αPDGFR mutant, Tyr to Phe substitution at 1018	–	severely compromised contraction	significantly reduced	recruitment or activation of PLCγ (Properties) (PLCγ): failed to efficiently associate; also recorded: Fails to recruit or activate
PDGF	–	–	–	PDGF-induced contraction (FCX^2, Fα and Fβ cells): triggered the same extent of contraction of the Fα and Fβ cells; tyrosine phosphorylation of the αPDGFR (αPDGFR): greatly increased the receptor's phosphotyrosine content
E587K: human αPDGFR point mutant, glutamic acid at position 587 changed to lysine; SEQ ID NO: 4	comparable to the WT receptor	–	–	–
F720: αPDGFR mutant, Tyr to Phe substitution at 720	–	somewhat reduced response	induced PVR similarly to the WT receptor-expressing cells	recruitment of SHP-2 (Properties) (SHP-2): failed to efficiently associate; also recorded: Fails to recruit SHP-2
